Data from PubChem BioAssay (NCI).
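Grown in 96-well plates, cells were treated for 48 hours with each compound at five concentrations. Insufficient inhibition: endpoint recorded as highest concentration tested. Here, GI50 denotes the concentration required for 50% inhibition of growth. At the TGI there is no net growth.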

Assays:
Test in all cases: growth of human tumour cells (NCI), 48 h
SF-539 CNS = system: SF-539 CNS
DU-145 prostate = system: DU-145 prostate
M14 melanoma = system: M14 melanoma
SK-MEL-2 melanoma = system: SK-MEL-2 melanoma
OVCAR-4 ovarian = system: OVCAR-4 ovarian
SW-620 colon = system: SW-620 colon
UO-31 renal = system: UO-31 renal
MALME-3M melanoma = system: MALME-3M melanoma
ACHN renal = system: ACHN renal
SF-268 CNS = system: SF-268 CNS
HOP-92 NSCLC = system: HOP-92 NSCLC
SNB-19 CNS = system: SNB-19 CNS
CCRF-CEM leukemia = system: CCRF-CEM leukemia
SNB-75 CNS = system: SNB-75 CNS
PC-3 prostate = system: PC-3 prostate
SK-MEL-28 melanoma = system: SK-MEL-28 melanoma
NCI-H522 lung = system: NCI-H522 lung
HCT-15 colon = system: HCT-15 colon
OVCAR-3 ovarian = system: OVCAR-3 ovarian
MDA-MB-231 breast = system: MDA-MB-231 breast
K-562 leukemia = system: K-562 leukemia
LOX IMVI melanoma = system: LOX IMVI melanoma
T-47D breast = system: T-47D breast
HT29 colon = system: HT29 colon
A549 NSCLC = system: A549 NSCLC
SF-295 CNS = system: SF-295 CNS
SN12C renal = system: SN12C renal
CAKI-1 renal = system: CAKI-1 renal
HCC-2998 colon = system: HCC-2998 colon
NCI-H23 lung = system: NCI-H23 lung
NCI/ADR-RES ovarian = system: NCI/ADR-RES ovarian
A498 renal = system: A498 renal
HCT-116 colon = system: HCT-116 colon
BT-549 breast = system: BT-549 breast
MCF7 breast = system: MCF7 breast
NCI-H226 lung = system: NCI-H226 lung
NCI-H460 lung = system: NCI-H460 lung
KM12 colon = system: KM12 colon
UACC-257 melanoma = system: UACC-257 melanoma
OVCAR-5 ovarian = system: OVCAR-5 ovarian
U251 CNS = system: U251 CNS
SK-OV-3 ovarian = system: SK-OV-3 ovarian
TK-10 renal = system: TK-10 renal
786-0 renal = system: 786-0 renal
OVCAR-8 ovarian = system: OVCAR-8 ovarian

SMILES: COc1ccc(C(=O)n2nc(/C=C/c3ccc(O)c(OC)c3)cc2/C=C/c2ccc(O)c(OC)c2)cc1
- GI50 (SF-539 CNS): 0.365 µM
- TGI (SF-539 CNS): 2.21 µM
- GI50 (DU-145 prostate): 0.668 µM
- TGI (DU-145 prostate): 4.56 µM
- GI50 (M14 melanoma): 0.328 µM
- TGI (M14 melanoma): 1.32 µM
- GI50 (SK-MEL-2 melanoma): 0.36 µM
- TGI (SK-MEL-2 melanoma): 0.934 µM
- GI50 (OVCAR-4 ovarian): 0.695 µM
- TGI (OVCAR-4 ovarian): 5.44 µM
- GI50 (SW-620 colon): 0.455 µM
- TGI (SW-620 colon): 11.9 µM
- GI50 (UO-31 renal): 0.393 µM
- TGI (UO-31 renal): 3.2 µM
- GI50 (MALME-3M melanoma): 0.556 µM
- TGI (MALME-3M melanoma): 3.59 µM
- GI50 (ACHN renal): 0.388 µM
- TGI (ACHN renal): 17.2 µM
- GI50 (SF-268 CNS): 0.476 µM
- TGI (SF-268 CNS): 8.42 µM
- GI50 (HOP-92 NSCLC): 0.609 µM
- TGI (HOP-92 NSCLC): 4.88 µM
- GI50 (SNB-19 CNS): 1.09 µM
- TGI (SNB-19 CNS): 18.8 µM
- GI50 (CCRF-CEM leukemia): 0.304 µM
- TGI (CCRF-CEM leukemia): > 100 µM
- GI50 (SNB-75 CNS): 0.395 µM
- TGI (SNB-75 CNS): 1.64 µM
- GI50 (PC-3 prostate): 0.496 µM
- TGI (PC-3 prostate): 3.78 µM
- GI50 (SK-MEL-28 melanoma): 0.602 µM
- TGI (SK-MEL-28 melanoma): 7.45 µM
- GI50 (NCI-H522 lung): 0.267 µM
- TGI (NCI-H522 lung): 0.785 µM
- GI50 (HCT-15 colon): 0.338 µM
- TGI (HCT-15 colon): 5.96 µM
- GI50 (OVCAR-3 ovarian): 0.449 µM
- TGI (OVCAR-3 ovarian): 2.28 µM
- GI50 (MDA-MB-231 breast): 0.575 µM
- TGI (MDA-MB-231 breast): 22.6 µM
- GI50 (K-562 leukemia): 0.404 µM
- TGI (K-562 leukemia): > 100 µM
- GI50 (LOX IMVI melanoma): 0.467 µM
- TGI (LOX IMVI melanoma): 3.15 µM
- GI50 (T-47D breast): 0.737 µM
- TGI (T-47D breast): 3.95 µM
- GI50 (HT29 colon): 0.482 µM
- TGI (HT29 colon): 2.24 µM
- GI50 (A549 NSCLC): 1.37 µM
- TGI (A549 NSCLC): 14 µM
- GI50 (SF-295 CNS): 1.64 µM
- TGI (SF-295 CNS): 6.28 µM
- GI50 (SN12C renal): 0.635 µM
- TGI (SN12C renal): 19.3 µM
- GI50 (CAKI-1 renal): 0.452 µM
- TGI (CAKI-1 renal): 15.3 µM
- GI50 (HCC-2998 colon): 2.16 µM
- TGI (HCC-2998 colon): 9.19 µM
- GI50 (NCI-H23 lung): 0.84 µM
- TGI (NCI-H23 lung): 4.69 µM
- GI50 (NCI/ADR-RES ovarian): 0.492 µM
- TGI (NCI/ADR-RES ovarian): 10.5 µM
- GI50 (A498 renal): 2.25 µM
- TGI (A498 renal): 7.26 µM
- GI50 (HCT-116 colon): 0.362 µM
- TGI (HCT-116 colon): 2.69 µM
- GI50 (BT-549 breast): 0.466 µM
- TGI (BT-549 breast): 2.32 µM
- GI50 (MCF7 breast): 0.303 µM
- TGI (MCF7 breast): 1.57 µM
- GI50 (NCI-H226 lung): 2.06 µM
- TGI (NCI-H226 lung): 8.52 µM
- GI50 (NCI-H460 lung): 0.37 µM
- TGI (NCI-H460 lung): 13.3 µM
- GI50 (KM12 colon): 0.387 µM
- TGI (KM12 colon): 18.1 µM
- GI50 (UACC-257 melanoma): 2.03 µM
- TGI (UACC-257 melanoma): 12.1 µM
- GI50 (OVCAR-5 ovarian): 2.61 µM
- TGI (OVCAR-5 ovarian): > 100 µM
- GI50 (U251 CNS): 0.597 µM
- TGI (U251 CNS): 10.9 µM
- GI50 (SK-OV-3 ovarian): 0.465 µM
- TGI (SK-OV-3 ovarian): 1.8 µM
- GI50 (TK-10 renal): 1.91 µM
- TGI (TK-10 renal): 6.66 µM
- GI50 (786-0 renal): 0.445 µM
- TGI (786-0 renal): 1.84 µM
- GI50 (OVCAR-8 ovarian): 0.86 µM
- TGI (OVCAR-8 ovarian): 13.1 µM
